What was measured:
Assay type in all cases: in vivo
corn (Zea mays) [1] = assay: Test A preemergence, corn; details: 1000 g ai/ha, 0 to 100 scale
Excerpt: (§1) Seeds of plant species selected from barnyardgrass (Echinochloa crus-galli), crabgrass (large crabgrass, Digitaria sanguinalis), kochia (Kochia scoparia), ragweed (common ragweed, Ambrosia elatior), morningglory (Ipomoea spp.), velvetleaf (Abutilon theophrasti), ryegrass, It. (Italian ryegrass, Lolium multiflorum), foxtail, giant (giant foxtail, Setaria faberii), wheat (Triticum aestivum), corn (Zea mays), and pigweed (Amaranthus retroflexus), were planted into a blend of loam soil and sand and treated preemergence with a directed soil spray using test chemicals formulated in a non-phytotoxic solvent mixture which included a surfactant. At the same time, plants selected from these crop and weed species and also blackgrass (Alopecurus myosuroides), and galium (catchweed bedstraw, Galium aparine), were planted in pots containing the same blend of loam soil and sand and treated with postemergence applications of test chemicals formulated in the same manner. Plants ranged in height from 2 to 10 cm and were in the one- to two-leaf stage for the postemergence treatment. Treated plants and untreated controls were maintained in a greenhouse for approximately 10 d, after which time all treated plants were compared to untreated controls and visually evaluated for injury. Plant response ratings, summarized in Table A, are based on a 0 to 100 scale where 0 is no effect and 100 is complete control. A dash (-) response means no test result.

[2] = test system: barnyardgrass (Echinochloa crus-galli); assay: Test A postemergence, barnyardgrass
Procedure, shortened: (§2)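 Pre: seeds planted in loam/sand, directed soil spray. Post: 2–10 cm plants, 1–2 leaf. Formulation: non-phytotoxic solvent + surfactant. Greenhouse ~10 d; visual injury vs untreated, 0 = no effect, 100 = complete control.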

[3] = test system: pigweed (Amaranthus retroflexus); assay: Test A preemergence, pigweed; details: 0 to 100 scale
Procedure, shortened: as §2

[4] = test system: morningglory (Ipomoea spp.); assay: Test A preemergence, morningglory; details: 1000 g ai/ha, 0 to 100 scale
Excerpt: as §1

[5] = test system: wheat (Triticum aestivum); assay: Test A postemergence, wheat; details: 0 to 100 scale
Procedure, shortened: as §2

[6] = test system: foxtail, giant (giant foxtail, Setaria faberii); assay: Test A postemergence, foxtail, giant; details: 0 to 100 scale
Procedure, shortened: as §2

[7] = test system: velvetleaf (Abutilon theophrasti); assay: Test A preemergence, velvetleaf; details: 1000 g ai/ha, 0 to 100 scale
Excerpt: as §1

[8] = test system: pigweed (Amaranthus retroflexus); assay: Test A postemergence, pigweed; details: 0 to 100 scale
Procedure, shortened: as §2

corn (Zea mays) [9] = assay: Test A postemergence, corn; details: 0 to 100 scale
Procedure, shortened: as §2

[10] = test system: crabgrass (large crabgrass, Digitaria sanguinalis); assay: Test A postemergence, crabgrass; details: 1000 g ai/ha, 0 to 100 scale
Excerpt: as §1

[11] = test system: wheat (Triticum aestivum); assay: Test A preemergence, wheat; details: 1000 g ai/ha, 0 to 100 scale
Excerpt: as §1

[12] = test system: foxtail, giant (giant foxtail, Setaria faberii); assay: Test A preemergence, foxtail, giant; details: 0 to 100 scale
Procedure, shortened: as §2

[13] = test system: morningglory (Ipomoea spp.); assay: Test A postemergence, morningglory; details: 1000 g ai/ha, 0 to 100 scale
Excerpt: as §1

[14] = test system: crabgrass (large crabgrass, Digitaria sanguinalis); assay: Test A preemergence, crabgrass; details: 1000 g ai/ha, 0 to 100 scale
Excerpt: as §1

[15] = test system: velvetleaf (Abutilon theophrasti); assay: Test A postemergence, velvetleaf; details: 1000 g ai/ha, 0 to 100 scale
Excerpt: as §1

[16] = test system: barnyardgrass (Echinochloa crus-galli); assay: Test A preemergence, barnyardgrass; details: 0 to 100 scale
Procedure, shortened: as §2

kochia (Kochia scoparia) [17] = assay: Test A preemergence, kochia; details: 0 to 100 scale
Procedure, shortened: as §2

[18] = test system: ragweed (common ragweed, Ambrosia elatior); assay: Test A postemergence, ragweed; details: 0 to 100 scale
Procedure, shortened: as §2

[19] = test system: sedge, umbrella (small-flower umbrella sedge, Cyperus difformis); assay: Test B flooded paddy test, sedge, umbrella; details: Flood, 250 g ai/ha; scale of 0 to 100 where 0 is no effect and 100 is complete control; 13 to 15 d
Procedure, shortened: (§3)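 Ratings use a 0-100 visual scale, where 100 is complete control, and compare treated plants with controls after 13 to 15 d of greenhouse growth. Compound went straight into paddy water kept 3 cm over the soil surface, applied to seedlings at the 2-leaf stage.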

[20] = test system: barnyardgrass (Echinochloa crus-galli); assay: Test B flooded paddy test, barnyardgrass; details: Flood, 250 g ai/ha; scale of 0 to 100 where 0 is no effect and 100 is complete control; 13 to 15 d
Procedure, shortened: as §3

[21] = test system: ducksalad (Heteranthera limosa); assay: Test B flooded paddy test, ducksalad; details: Flood, 250 g ai/ha; scale of 0 to 100 where 0 is no effect and 100 is complete control; 13 to 15 d
Procedure, shortened: as §3

[22] = test system: blackgrass (Alopecurus myosuroides); assay: Test A postemergence, blackgrass; details: 0 to 100 scale
Procedure, shortened: as §2

[23] = test system: ryegrass, It. (Italian ryegrass, Lolium multiflorum); assay: Test A postemergence, ryegrass, It.; details: 0 to 100 scale
Procedure, shortened: as §2

[24] = test system: galium (catchweed bedstraw, Galium aparine); assay: Test A postemergence, galium; details: 0 to 100 scale
Procedure, shortened: as §2

rice (Oryza sativa) = assay: Test B flooded paddy test, rice; details: Flood, 250 g ai/ha; scale of 0 to 100 where 0 is no effect and 100 is complete control; 13 to 15 d
Procedure, shortened: as §3

[25] = test system: ragweed (common ragweed, Ambrosia elatior); assay: Test A preemergence, ragweed; details: 0 to 100 scale
Procedure, shortened: as §2

[26] = test system: ryegrass, It. (Italian ryegrass, Lolium multiflorum); assay: Test A preemergence, ryegrass, It.; details: 0 to 100 scale
Procedure, shortened: as §2

kochia (Kochia scoparia) [27] = assay: Test A postemergence, kochia; details: 0 to 100 scale
Procedure, shortened: as §2

[28] = 1000 g ai/ha, 0 to 100 scale (0 no effect, 100 complete control)

O=C1NCC(Cc2ccccc2)C1C(=O)Nc1ccccc1F (stereo not drawn) [Compound 3]
Plant response rating, Corn (corn (Zea mays) [1]): 0
Plant response rating, Barnyardgrass [2, 28]: 0
Plant response rating, Pigweed ([3]; 1000 g ai/ha): 0
Plant response rating, Morningglory [4]: 0
Plant response rating, Wheat ([5]; 1000 g ai/ha): 0
Plant response rating, Foxtail, Giant ([6]; 1000 g ai/ha): 0
Plant response rating, Velvetleaf [7]: 0
Plant response rating, Pigweed ([8]; 1000 g ai/ha): 0
Plant response rating, Corn (corn (Zea mays) [9]; 1000 g ai/ha): 0
Plant response rating, Crabgrass [10]: 0
Plant response rating, Wheat [11]: 0
Plant response rating, Foxtail, Giant ([12]; 1000 g ai/ha): 0
Plant response rating, Morningglory [13]: 0
Plant response rating, Crabgrass [14]: 0
Plant response rating, Velvetleaf [15]: 0
Plant response rating, Barnyardgrass ([16]; 1000 g ai/ha): 0

O=C1NCC(Cc2ccccc2)C1C(=O)Nc1cccc(F)c1F (stereo not drawn) [Compound 4]
Plant response rating, Corn (corn (Zea mays) [1]): 0
Plant response rating, Barnyardgrass [2, 28]: 0
Plant response rating, Pigweed ([3]; 1000 g ai/ha): 0
Plant response rating, Morningglory [4]: 0
Plant response rating, Wheat ([5]; 1000 g ai/ha): 0
Plant response rating, Foxtail, Giant ([6]; 1000 g ai/ha): 0
Plant response rating, Velvetleaf [7]: 0
Plant response rating, Pigweed ([8]; 1000 g ai/ha): 0
Plant response rating, Corn (corn (Zea mays) [9]; 1000 g ai/ha): 0
Plant response rating, Crabgrass [10]: 20
Plant response rating, Wheat [11]: 0
Plant response rating, Foxtail, Giant ([12]; 1000 g ai/ha): 0
Plant response rating, Morningglory [13]: 0
Plant response rating, Crabgrass [14]: 60
Plant response rating, Velvetleaf [15]: 0
Plant response rating, Barnyardgrass ([16]; 1000 g ai/ha): 0

O=C1NCC(Cc2ccc(F)cc2)C1C(=O)Nc1ccccc1F (stereo not drawn) [Compound 14]
Plant response rating, Corn (corn (Zea mays) [1]): 0
Plant response rating, Barnyardgrass [2, 28]: 0
Plant response rating, Pigweed ([3]; 1000 g ai/ha): 0
Plant response rating, Morningglory [4]: 0
Plant response rating, Wheat ([5]; 1000 g ai/ha): 0
Plant response rating, Foxtail, Giant ([6]; 1000 g ai/ha): 0
Plant response rating, Velvetleaf [7]: 0
Plant response rating, Pigweed ([8]; 1000 g ai/ha): 0
Plant response rating, Corn (corn (Zea mays) [9]; 1000 g ai/ha): 0
Plant response rating, Crabgrass [10]: 20
Plant response rating, Wheat [11]: 0
Plant response rating, Foxtail, Giant ([12]; 1000 g ai/ha): 30
Plant response rating, Morningglory [13]: 0
Plant response rating, Crabgrass [14]: 80
Plant response rating, Velvetleaf [15]: 0
Plant response rating, Barnyardgrass ([16]; 1000 g ai/ha): 20

O=C1NCC(/C=C/c2ccccc2)C1C(=O)Nc1cccc(F)c1F (stereo not drawn) [Compound 33, N-(2,3-difluorophenyl)-2-oxo-4-[(1E)-2-phenylethenyl]-3-pyrrolidinecarboxamide]
Plant response rating, Kochia (kochia (Kochia scoparia) [17]; 125 g ai/ha): 0
Plant response rating, Kochia (kochia (Kochia scoparia) [17]; 500 g ai/ha): 20
Plant response rating, Ragweed ([18]; 125 g ai/ha): 10
Plant response rating, Ragweed ([18]; 500 g ai/ha): 10
Plant response rating, Sedge, Umbrella [19]: 0
Plant response rating, Barnyardgrass ([2]; 125 g ai/ha, 0 to 100 scale): 50
Plant response rating, Barnyardgrass ([2]; 500 g ai/ha, 0 to 100 scale): 90
Plant response rating, Barnyardgrass [20]: 40
Plant response rating, Pigweed ([3]; 125 g ai/ha): 0
Plant response rating, Pigweed ([3]; 500 g ai/ha): 0
Plant response rating, Wheat ([5]; 125 g ai/ha): 0
Plant response rating, Wheat ([5]; 500 g ai/ha): 0
Plant response rating, Foxtail, Giant ([6]; 125 g ai/ha): 70
Plant response rating, Foxtail, Giant ([6]; 500 g ai/ha): 70
Plant response rating, Ducksalad [21]: 95
Plant response rating, Blackgrass ([22]; 125 g ai/ha): 0
Plant response rating, Blackgrass ([22]; 500 g ai/ha): 0
Plant response rating, Pigweed ([8]; 125 g ai/ha): 0
Plant response rating, Pigweed ([8]; 500 g ai/ha): 0
Plant response rating, Corn (corn (Zea mays) [9]; 125 g ai/ha): 0
Plant response rating, Corn (corn (Zea mays) [9]; 500 g ai/ha): 0
Plant response rating, Ryegrass, It. ([23]; 125 g ai/ha): 0
Plant response rating, Ryegrass, It. ([23]; 500 g ai/ha): 0
Plant response rating, Foxtail, Giant ([12]; 125 g ai/ha): 50
Plant response rating, Foxtail, Giant ([12]; 500 g ai/ha): 90
Plant response rating, Galium ([24]; 125 g ai/ha): 0
Plant response rating, Galium ([24]; 500 g ai/ha): 0
Plant response rating, Barnyardgrass ([16]; 125 g ai/ha): 50
Plant response rating, Barnyardgrass ([16]; 500 g ai/ha): 90
Plant response rating, Rice (rice (Oryza sativa)): 0
Plant response rating, Ragweed ([25]; 125 g ai/ha): 0
Plant response rating, Ragweed ([25]; 500 g ai/ha): 0
Plant response rating, Ryegrass, It. ([26]; 125 g ai/ha): 0
Plant response rating, Ryegrass, It. ([26]; 500 g ai/ha): 0
Plant response rating, Kochia (kochia (Kochia scoparia) [27]; 125 g ai/ha): 0
Plant response rating, Kochia (kochia (Kochia scoparia) [27]; 500 g ai/ha): 0

O=C1NCC(C#Cc2cccc(Cl)c2)C1C(=O)Nc1ccccc1F (stereo not drawn) [Compound 25, 4-[2-(3-chlorophenyl)ethynyl]N-(2-fluorophenyl)-2-oxo-3-pyrrolidinecarboxamide]
Plant response rating, Kochia (kochia (Kochia scoparia) [17]; 125 g ai/ha): 0
Plant response rating, Kochia (kochia (Kochia scoparia) [17]; 500 g ai/ha): 60
Plant response rating, Ragweed ([18]; 125 g ai/ha): 0
Plant response rating, Ragweed ([18]; 500 g ai/ha): 0
Plant response rating, Sedge, Umbrella [19]: 0
Plant response rating, Barnyardgrass ([2]; 125 g ai/ha, 0 to 100 scale): 40
Plant response rating, Barnyardgrass ([2]; 500 g ai/ha, 0 to 100 scale): 70
Plant response rating, Barnyardgrass [20]: 0
Plant response rating, Pigweed ([3]; 125 g ai/ha): 0
Plant response rating, Pigweed ([3]; 500 g ai/ha): 50
Plant response rating, Wheat ([5]; 125 g ai/ha): 0
Plant response rating, Wheat ([5]; 500 g ai/ha): 0
Plant response rating, Foxtail, Giant ([6]; 125 g ai/ha): 30
Plant response rating, Foxtail, Giant ([6]; 500 g ai/ha): 80
Plant response rating, Ducksalad [21]: 85
Plant response rating, Blackgrass ([22]; 125 g ai/ha): 0
Plant response rating, Blackgrass ([22]; 500 g ai/ha): 0
Plant response rating, Pigweed ([8]; 125 g ai/ha): 0
Plant response rating, Pigweed ([8]; 500 g ai/ha): 20
Plant response rating, Corn (corn (Zea mays) [9]; 125 g ai/ha): 0
Plant response rating, Corn (corn (Zea mays) [9]; 500 g ai/ha): 0
Plant response rating, Ryegrass, It. ([23]; 125 g ai/ha): 0
Plant response rating, Ryegrass, It. ([23]; 500 g ai/ha): 0
Plant response rating, Foxtail, Giant ([12]; 125 g ai/ha): 40
Plant response rating, Foxtail, Giant ([12]; 500 g ai/ha): 90
Plant response rating, Galium ([24]; 125 g ai/ha): 0
Plant response rating, Galium ([24]; 500 g ai/ha): 60
Plant response rating, Barnyardgrass ([16]; 125 g ai/ha): 60
Plant response rating, Barnyardgrass ([16]; 500 g ai/ha): 90
Plant response rating, Rice (rice (Oryza sativa)): 20
Plant response rating, Ragweed ([25]; 125 g ai/ha): 0
Plant response rating, Ragweed ([25]; 500 g ai/ha): 0
Plant response rating, Ryegrass, It. ([26]; 125 g ai/ha): 0
Plant response rating, Ryegrass, It. ([26]; 500 g ai/ha): 0
Plant response rating, Kochia (kochia (Kochia scoparia) [27]; 125 g ai/ha): 0
Plant response rating, Kochia (kochia (Kochia scoparia) [27]; 500 g ai/ha): 0

— US10906873B2, “Substituted cyclic amides as herbicides” (FMC Corporation, priority 2015, dated 2021)
